Measurements published in ChEMBL document CHEMBL3046447, “Insecticidal Activity of α-Methylene-γ-butyrolactone against Several Insect Pests” (1999).

How the values were obtained:
Type in all cases: functional
Frankliniella intonsa [1] = assay: Insecticidal activity against adult Frankliniella intonsa assessed as mortality at 25 ug/disk after 24 hr relative to control
Thrips palmi [2] = assay: Insecticidal activity against adult Thrips palmi assessed as mortality at 75 ug/disk after 24 hr relative to control
Frankliniella intonsa [3] = assay: Insecticidal activity against adult Frankliniella intonsa assessed as mortality at 75 ug/disk after 24 hr relative to control
[4] = system: Frankliniella occidentalis; assay: Insecticidal activity against adult Frankliniella occidentalis (western flower thrips) assessed as mortality at 75 ug/disc after 24 hr relative to control
Thrips palmi [5] = assay: Insecticidal activity against adult Thrips palmi assessed as mortality at 37.5 ug/disk after 72 hr relative to control
Frankliniella intonsa [6] = assay: Insecticidal activity against adult Frankliniella intonsa assessed as mortality at 37.5 ug/disk after 48 hr relative to control
Frankliniella intonsa [7] = assay: Insecticidal activity against adult Frankliniella intonsa assessed as mortality at 25 ug/disk after 48 hr relative to control
Thrips palmi [8] = assay: Insecticidal activity against adult Thrips palmi assessed as mortality at 25 ug/disk after 72 hr relative to control
Thrips palmi [9] = assay: Insecticidal activity against adult Thrips palmi assessed as mortality at 25 ug/disk after 48 hr relative to control
Frankliniella intonsa [10] = assay: Insecticidal activity against adult Frankliniella intonsa assessed as mortality at 12.5 ug/disk after 48 hr relative to control
Spodoptera litura [11] = assay: Insecticidal activity against adult Spodoptera litura assessed as mortality at 600 ug/disc after 48 hr relative to control
Frankliniella intonsa [12] = assay: Insecticidal activity against adult Frankliniella intonsa assessed as mortality at 50 ug/disk after 48 hr relative to control
Thrips palmi [13] = assay: Insecticidal activity against adult Thrips palmi assessed as mortality at 12.5 ug/disk after 24 hr relative to control
Frankliniella intonsa [14] = assay: Insecticidal activity against adult Frankliniella intonsa assessed as mortality at 50 ug/disk after 72 hr relative to control
Thrips palmi [15] = assay: Insecticidal activity against adult Thrips palmi assessed as mortality at 50 ug/disk after 48 hr relative to control
[16] = system: Frankliniella occidentalis; assay: Insecticidal activity against adult Frankliniella occidentalis (western flower thrips) assessed as mortality at 12.5 ug/disc after 48 hr relative to control
Nilaparvata lugens [17] = assay: Insecticidal activity against adult Nilaparvata lugens (brown planthopper) assessed as mortality at 600 ug/disc after 48 hr relative to control
Nilaparvata lugens [18] = assay: Insecticidal activity against adult Nilaparvata lugens (brown planthopper) assessed as mortality at 60 ug/disc after 24 hr relative to control
Frankliniella intonsa [19] = assay: Insecticidal activity against adult Frankliniella intonsa assessed as mortality at 37.5 ug/disk after 72 hr relative to control
Frankliniella intonsa [20] = assay: Insecticidal activity against adult Frankliniella intonsa assessed as mortality at 12.5 ug/disk after 24 hr relative to control
Spodoptera litura [21] = assay: Insecticidal activity against adult Spodoptera litura assessed as mortality at 600 ug/disc after 24 hr relative to control
Thrips palmi [22] = assay: Insecticidal activity against adult Thrips palmi assessed as mortality at 50 ug/disk after 24 hr relative to control
Plutella xylostella [23] = assay: Insecticidal activity against adult Plutella xylostella (diamondback moth) assessed as mortality at 60 ug/disc after 48 hr relative to control
Thrips palmi [24] = assay: Insecticidal activity against adult Thrips palmi assessed as mortality at 25 ug/disk after 24 hr relative to control
Nilaparvata lugens [25] = assay: Insecticidal activity against adult Nilaparvata lugens (brown planthopper) assessed as mortality at 60 ug/disc after 48 hr relative to control
Thrips palmi [26] = assay: Insecticidal activity against adult Thrips palmi assessed as mortality at 12.5 ug/disk after 72 hr relative to control
[27] = system: Frankliniella occidentalis; assay: Insecticidal activity against adult Frankliniella occidentalis (western flower thrips) assessed as mortality at 12.5 ug/disc after 72 hr relative to control
Plutella xylostella [28] = assay: Insecticidal activity against adult Plutella xylostella (diamondback moth) assessed as mortality at 600 ug/disc after 24 hr relative to control
Thrips palmi [29] = assay: Insecticidal activity against adult Thrips palmi assessed as mortality at 37.5 ug/disk after 48 hr relative to control
Plutella xylostella [30] = assay: Insecticidal activity against adult Plutella xylostella (diamondback moth) assessed as mortality at 60 ug/disc after 24 hr relative to control
[31] = system: Frankliniella occidentalis; assay: Insecticidal activity against adult Frankliniella occidentalis (western flower thrips) assessed as mortality at 12.5 ug/disc after 24 hr relative to control
Frankliniella intonsa [32] = assay: Insecticidal activity against adult Frankliniella intonsa assessed as mortality at 25 ug/disk after 72 hr relative to control
Frankliniella intonsa [33] = assay: Insecticidal activity against adult Frankliniella intonsa assessed as mortality at 37.5 ug/disk after 24 hr relative to control
Plutella xylostella [34] = assay: Insecticidal activity against adult Plutella xylostella (diamondback moth) assessed as mortality at 600 ug/disc after 48 hr relative to control
Spodoptera litura [35] = assay: Insecticidal activity against adult Spodoptera litura assessed as mortality at 60 ug/disc after 24 hr relative to control
Frankliniella intonsa [36] = assay: Insecticidal activity against adult Frankliniella intonsa assessed as mortality at 12.5 ug/disk after 72 hr relative to control
Thrips palmi [37] = assay: Insecticidal activity against adult Thrips palmi assessed as mortality at 12.5 ug/disk after 48 hr relative to control
Thrips palmi [38] = assay: Insecticidal activity against adult Thrips palmi assessed as mortality at 37.5 ug/disk after 24 hr relative to control
[39] = system: Frankliniella occidentalis; assay: Insecticidal activity against adult Frankliniella occidentalis (western flower thrips) assessed as mortality at 37.5 ug/disc after 48 hr relative to control
[40] = system: Frankliniella occidentalis; assay: Insecticidal activity against adult Frankliniella occidentalis (western flower thrips) assessed as mortality at 37.5 ug/disc after 24 hr relative to control
Spodoptera litura [41] = assay: Insecticidal activity against adult Spodoptera litura assessed as mortality at 60 ug/disc after 48 hr relative to control
Nilaparvata lugens [42] = assay: Insecticidal activity against adult Nilaparvata lugens (brown planthopper) assessed as mortality at 600 ug/disc after 24 hr relative to control

C=C1CCOC1=O [TULIPALINE A]
mortality at 25 µg/disc (Frankliniella intonsa [1]): 34%
mortality at 75 µg/disc (Thrips palmi [2]): 100%
mortality at 75 µg/disc (Frankliniella intonsa [3]): 100%
mortality at 75 µg/disc [4]: 100%
mortality at 37.5 µg/disc (Thrips palmi [5]): 100%
mortality at 37.5 µg/disc (Frankliniella intonsa [6]): 66%
mortality at 25 µg/disc (Frankliniella intonsa [7]): 48%
mortality at 25 µg/disc (Thrips palmi [8]): 90%
mortality at 25 µg/disc (Thrips palmi [9]): 70%
mortality at 12.5 µg/disc (Frankliniella intonsa [10]): 0%
mortality at 600 µg/disc (Spodoptera litura [11]): 20%
mortality at 50 µg/disc (Frankliniella intonsa [12]): 70%
mortality at 12.5 µg/disc (Thrips palmi [13]): 2%
mortality at 50 µg/disc (Frankliniella intonsa [14]): 94%
mortality at 50 µg/disc (Thrips palmi [15]): 100%
mortality at 12.5 µg/disc [16]: 8%
mortality at 600 µg/disc (Nilaparvata lugens [17]): 30%
mortality at 60 µg/disc (Nilaparvata lugens [18]): 0%
mortality at 37.5 µg/disc (Frankliniella intonsa [19]): 76%
mortality at 12.5 µg/disc (Frankliniella intonsa [20]): 0%
mortality at 600 µg/disc (Spodoptera litura [21]): 0%
mortality at 50 µg/disc (Thrips palmi [22]): 80%
mortality at 60 µg/disc (Plutella xylostella [23]): 0%
mortality at 25 µg/disc (Thrips palmi [24]): 14%
mortality at 60 µg/disc (Nilaparvata lugens [25]): 0%
mortality at 12.5 µg/disc (Thrips palmi [26]): 20%
mortality at 12.5 µg/disc [27]: 12%
mortality at 600 µg/disc (Plutella xylostella [28]): 0%
mortality at 37.5 µg/disc (Thrips palmi [29]): 94%
mortality at 60 µg/disc (Plutella xylostella [30]): 0%
mortality at 12.5 µg/disc [31]: 4%
mortality at 25 µg/disc (Frankliniella intonsa [32]): 48%
mortality at 37.5 µg/disc (Frankliniella intonsa [33]): 58%
mortality at 600 µg/disc (Plutella xylostella [34]): 50%
mortality at 60 µg/disc (Spodoptera litura [35]): 0%
mortality at 12.5 µg/disc (Frankliniella intonsa [36]): 0%
mortality at 12.5 µg/disc (Thrips palmi [37]): 14%
mortality at 37.5 µg/disc (Thrips palmi [38]): 56%
mortality at 37.5 µg/disc [39]: 100%
mortality at 37.5 µg/disc [40]: 52%
mortality at 60 µg/disc (Spodoptera litura [41]): 0%
mortality at 600 µg/disc (Nilaparvata lugens [42]): 0%
